In patent US8153818B2, “Triazolyl phenyl benzenesulfonamides” (ChemoCentryx, Inc., priority 2006, dated 2012):

Molecular target: T1, CCR9 (Homo sapiens, UniProt P51686)
T1 construct: chemokine expressing cells (such as THP-1 cells for CCR2 assay or MOLT-4 cells for CCR9 assay); host or cells: MOLT-4
T1 sequence (P51686 1-369): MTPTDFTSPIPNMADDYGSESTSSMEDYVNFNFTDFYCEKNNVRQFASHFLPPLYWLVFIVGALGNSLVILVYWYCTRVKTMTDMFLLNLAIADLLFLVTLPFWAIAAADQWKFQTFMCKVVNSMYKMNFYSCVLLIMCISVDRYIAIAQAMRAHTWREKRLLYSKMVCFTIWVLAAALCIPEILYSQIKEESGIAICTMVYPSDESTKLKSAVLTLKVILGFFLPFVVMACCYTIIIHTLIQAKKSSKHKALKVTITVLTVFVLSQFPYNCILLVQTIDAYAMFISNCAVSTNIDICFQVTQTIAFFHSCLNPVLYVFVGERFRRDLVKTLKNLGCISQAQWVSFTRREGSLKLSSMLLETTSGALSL
Assay: CCR9 activity in one of the chemotaxis, binding or calcium mobilization assays
Type: cell-based
Details: assay not specified per compound
Description: Conventional migration assay was used to determine the efficacy of potential receptor antagonists in blocking migration mediated through chemokines (such as CCR2 or CCR9). This assay was routinely performed using the ChemoTX® microchamber system with a 5-μm pore-sized polycarbonate membrane. To begin such an assay, chemokine expressing cells (such as THP-1 cells for CCR2 assay or MOLT-4 cells for CCR9 assay) were harvested by centrifugation of cell suspension at 1000 RPM on a GS-6R Beckman centrifuge. The cell pellet was resuspended in chemotaxis buffer (HBSS with 0.1% BSA) at 10×10^6 cells/mL for CCR2 assay (5×10^6 cells/mL for CCR9 assay). Test compounds at desired concentrations were prepared from 10 mM stock solutions by serial dilutions in chemotaxis buffer. An equal volume of cells and compounds were mixed and incubated at room temperature for 15 minutes. Afterwards, 20 μL of the mixture was transferred onto the porous membrane of a migration microchamber, with 29 μL of chemokine ligand (0.1 nM chemokine MCP-1 protein for CCR2 assay or […] chemokine TECK protein for CCR9 assay) placed at the lower chamber. Following an incubation at 37° C. (90-minute for CCR2; 150-minute for CCR9), during which cells migrated against the chemokine gradient, the assay was terminated by removing the cell drops from atop the filter. To quantify cells migrated across the membrane, 5 μL of 7×CyQUANT® solution was added to each well in the lower chamber, and the fluorescence signal measured on a Spectrafluor Plus fluorescence plate reader (TECAN, Durham, N.C.). The degree of inhibition was determined by comparing migration signals between compound-treated and untreated cells. IC50 calculation was further performed by non-linear squares regression analysis using Graphpad Prism (Graphpad Software, San Diego, Calif.).
Calcium flux assay measures an increase in intracellular calcium following ligand-induced receptor activation. In the screen of chemokine antagonists, it was used as a secondary assay carried out on a FLIPR® machine (Molecular Devices, Mountain View, Calif.). To begin an assay, chemokine expressing cells (such as THP-1 cells for CCR2 assay or MOLT-4 cells for CCR9 assay) were harvested by centrifugation of cell suspension, and resuspended to 1.5×10^6 cells/mL in HBSS (with 1% fetal calf serum). Cells were then labeled with a calcium indicator dye Fluo-4 AM for 45 minutes at 37° C. with gentle shaking. Following incubation, cells were pelletted, washed once with HBSS and resuspended in the same buffer at a density of 1.6×10^6 cells/mL. One hundred microliters of labeled cells were mixed with 10 μL of test compound at the appropriate concentrations on an assay plate. Chemokine protein (MCP-1 at a final concentration of 0.1 nM for CCR2 assay or TECK at a final concentration of 25 nM for CCR9 assay) to activate the receptor. The degree of inhibition was determined by comparing calcium signals between compound-treated and untreated cells. IC50 calculations were further performed by non-linear squares regression analysis using Graphpad Prism (Graphpad Software, San Diego, Calif.). […]
In the tables below, structures and activity are provided for representative compounds described herein. Activity is provided as follows for either or both of the chemotaxis assay and/or calcium mobilization assays, described above.

IC50 [nM] | Structure (SMILES)
< 1000 | CCOC(=O)Cc1nnc(-c2cc(Cl)c(F)cc2NS(=O)(=O)c2ccc(C(C)(C)C)cc2)n1C [Compound 64, ethyl 2-(5-(2-(4-tert-butylphenylsulfonamido)-5-chloro-4-fluorophenyl)-4-methyl-4H-1,2,4-triazol-3-yl)acetate]
< 1000 | Cn1c(CC(C)(C)O)nnc1-c1cc(Cl)c(F)cc1NS(=O)(=O)c1ccc(C(C)(C)C)cc1 [Compound 65, 4-tert-butyl-N-(4-chloro-5-fluoro-2-(5-(2-hydroxy-2-methylpropyl)-4-methyl-4H-1,2,4-triazol-3-yl)phenyl)benzenesulfonamide]
< 1000 | Cn1c(CN2CCOCC2)nnc1-c1cc(Cl)c(F)cc1NS(=O)(=O)c1ccc(C(C)(C)C)cc1 [Compound 66]
< 1000 | Cn1c(CS(C)(=O)=O)nnc1-c1cc(Cl)c(F)cc1NS(=O)(=O)c1ccc(C(C)(C)C)cc1 [Compound 67, 4-tert-butyl-N-(4-chloro-5-fluoro-2-(4-methyl-5-(methylsulfonylmethyl)-4H-1,2,4-triazol-3-yl)phenyl)benzenesulfonamide]
< 1000 | Cc1nnc(-c2cc(Cl)ccc2NS(=O)(=O)c2ccc(OC(C)C)cc2)n1C [Compound 68, N-(4-chloro-2-(4,5-dimethyl-4H-1,2,4-triazol-3-yl)phenyl)-4-isopropoxybenzenesulfonamide]
< 1000 | CC(C)Oc1ccc(S(=O)(=O)Nc2ccc(Cl)cc2-c2nncn2C(C)C)cc1 [Compound 69, N-(4-chloro-2-(4-isopropyl-4H-1,2,4-triazol-3-yl)phenyl)-4-isopropoxybenzenesulfonamide]
< 1000 | Cn1c(-c2cc(Cl)ccc2NS(=O)(=O)c2ccc(C(C)(C)C)cc2)nnc1C1CCNCC1 [Compound 70]
< 1000 | CCn1c(C)nnc1-c1cc(F)c(F)cc1NS(=O)(=O)c1ccc(C(C)(C)C)cc1 [Compound 71, 4-tert-butyl-N-(2-(4-ethyl-5-methyl-4H-1,2,4-triazol-3-yl)-4,5-difluorophenyl)benzenesulfonamide]
< 1000 | Cc1nnc(-c2ccc(F)cc2NS(=O)(=O)c2ccc(C(C)(C)C)cc2)n1C [Compound 72, 4-tert-butyl-N-(2-(4,5-dimethyl-4H-1,2,4-triazol-3-yl)-5-fluorophenyl)benzenesulfonamide]
< 1000 | Cc1nnc(-c2cc(Cl)ccc2NS(=O)(=O)c2ccc(C(C)(C)C)cc2)n1[C@@H]1CCNC1 [Compound 73]
< 1000 | CCn1c(C)nnc1-c1ccc(F)cc1NS(=O)(=O)c1ccc(C(C)(C)C)cc1 [Compound 74, 4-tert-butyl-N-(2-(4-ethyl-5-methyl-4H-1,2,4-triazol-3-yl)-5-fluorophenyl)benzenesulfonamide]
< 1000 | CC(C)(C)c1ccc(S(=O)(=O)Nc2ccc(Cl)cc2-c2nncn2[C@@H]2CCNC2)cc1 [Compound 75]
< 1000 | Cn1cnnc1-c1cc(Cl)c(F)cc1NS(=O)(=O)c1ccc(C(C)(C)C)cc1 [Compound 76, 4-tert-butyl-N-(4-chloro-5-fluoro-2-(4-methyl-4H-1,2,4-triazol-3-yl)phenyl)benzenesulfonamide]
< 1000 | Cc1nnc(-c2cc(F)c(F)cc2NS(=O)(=O)c2ccc(C(C)(C)C)cc2)n1[C@H]1CCNC1 [Compound 77, (S)-4-tert-butyl-N-(4,5-difluoro-2-(5-methyl-4-(pyrrolidin-3-yl)-4H-1,2,4-triazol-3-yl)phenyl)benzenesulfonamide]
< 1000 | CC(C)n1cnnc1-c1cc(Cl)c(F)cc1NS(=O)(=O)c1ccc(C(C)(C)C)cc1 [Compound 78, 4-tert-butyl-N-(4-chloro-5-fluoro-2-(4-isopropyl-4H-1,2,4-triazol-3-yl)phenyl)benzenesulfonamide]
< 1000 | Cc1ocnc1-c1nnc(-c2cc(Cl)c(F)cc2NS(=O)(=O)c2ccc(C(C)(C)C)cc2)n1C [Compound 79]

IC50 [nM] | Structure (SMILES)
< 1000 | Cc1nnc(-c2cc(Cl)c(F)cc2NS(=O)(=O)c2ccc(C(C)(C)C)cc2)n1C1CCOC1 (centres unmarked) [Compound 80]
< 1000 | CC(C)c1nnc(-c2cc(Cl)c(F)cc2NS(=O)(=O)c2ccc(C(C)(C)C)cc2)n1C1CCOC1 (centres unmarked) [Compound 81]
< 1000 | CC(C)n1c(-c2cc(Cl)c(F)cc2NS(=O)(=O)c2ccc(C(C)(C)C)cc2)nnc1C1CCOC1 (centres unmarked) [Compound 82]
< 1000 | Cc1nnc(-c2cc(Cl)ccc2NS(=O)(=O)c2ccc(C(C)(C)C)cc2)n1CCN [Compound 83, N-(2-(4-(2-aminoethyl)-5-methyl-4H-1,2,4-triazol-3-yl)-4-chlorophenyl)-4-tert-butylbenzenesulfonamide]
< 1000 | Cc1nnc(-c2cc(Cl)ccc2NS(=O)(=O)c2ccc(C(C)(C)C)cc2)n1C1CCC1 [Compound 84, 4-tert-butyl-N-(4-chloro-2-(4-cyclobutyl-5-methyl-4H-1,2,4-triazol-3-yl)phenyl)benzenesulfonamide]
< 1000 | CC(C)(C)c1ccc(S(=O)(=O)Nc2cc(F)c(Cl)cc2-c2nncn2C2CNC2)cc1 [Compound 85]
< 1000 | CC(C)n1c(-c2cc(Cl)ccc2NS(=O)(=O)c2ccc(C(C)(C)C)cc2)nnc1C(F)(F)F [Compound 86, 4-tert-butyl-N-(4-chloro-2-(4-isopropyl-5-(trifluoromethyl)-4H-1,2,4-triazol-3-yl)phenyl)benzenesulfonamide]
< 1000 | CCn1c(-c2cc(Cl)c(F)cc2NS(=O)(=O)c2ccc(C(C)(C)C)cc2)nnc1C(C)C [Compound 87, 4-tert-butyl-N-(4-chloro-2-(4-ethyl-5-isopropyl-4H-1,2,4-triazol-3-yl)-5-fluorophenyl)benzenesulfonamide]
< 1000 | CCc1nnc(-c2cc(Cl)c(F)cc2NS(=O)(=O)c2ccc(C(C)(C)C)cc2)n1[C@H]1CCNC1 [Compound 88]
< 1000 | Cn1c(CCS(C)(=O)=O)nnc1-c1cc(Cl)c(F)cc1NS(=O)(=O)c1ccc(C(C)(C)C)cc1 [Compound 89, 4-tert-butyl-N-(4-chloro-5-fluoro-2-(4-methyl-5-(2-(methylsulfonyl)ethyl)-4H-1,2,4-triazol-3-yl)phenyl)benzenesulfonamide]
< 1000 | CC(C)(C)c1ccc(S(=O)(=O)Nc2cc(F)c(Cl)cc2-c2nncn2[C@H]2CCNC2=O)cc1 [Compound 90]
< 1000 | CC(=O)N1CCC(n2c(C)nnc2-c2cc(Cl)ccc2NS(=O)(=O)c2ccc(C(C)(C)C)cc2)CC1 [Compound 91]
< 1000 | CC(C)n1c(N)nnc1-c1cc(Cl)ccc1NS(=O)(=O)c1ccc(C(C)(C)C)cc1 [Compound 92, N-(2-(5-amino-4-isopropyl-4H-1,2,4-triazol-3-yl)-4-chlorophenyl)-4-tert-butylbenzenesulfonamide]
< 1000 | Cc1nnc(-c2cc(Cl)ccc2NS(=O)(=O)c2ccc(C(C)(C)C)cc2)n1C1CCN(S(C)(=O)=O)CC1 [Compound 93]
< 1000 | Cc1nnc(-c2cc(Cl)ccc2NS(=O)(=O)c2ccc(C(C)(C)C)cc2)n1C1CCN(C(N)=O)CC1 [Compound 94]
< 1000 | Cc1nnc(-c2ccc(Cl)cc2NS(=O)(=O)c2ccc(C(C)(C)C)cc2)n1C(C)C [Compound 95, 4-tert-butyl-N-(5-chloro-2-(4-isopropyl-5-methyl-4H-1,2,4-triazol-3-yl)phenyl)benzenesulfonamide]
